Source: patent publication US5800820A, “Methods and compositions for treatment of angiogenic diseases” (Repligen Corporation, priority 1995, dated 1998)
Positions count from the first letter of the chain named. Values joined by “and” are separate entries in the source; they are usually repeats but may differ in a detail not shown here. Equal values may be shown once.

What was measured:
[1] = test system: hind footpad (murine dermis); assay: Footpad assay (dermal inflammation); conditions: systemic indomethacin
Procedure: (§1) Footpad Assay. 0.05 ml of PBS containing a test substance was injected intradermally into the right hind footpad of each mouse. An identical amount of diluent, not containing the test substance, was injected into the left hind footpad. At various time points, footpad thicknesses were measured with a spring loaded engineer's micrometer (Fowler Co., Biggswald, England).
(§2) At various time points, mice were sacrificed and footpad tissue was prepared for light microscopy. This tissue was used to quantify infiltrating cell types. Biopsy specimens were fixed in 10% buffered formalin for at least 48 hours and then prepared using standard techniques of paraffin embedding and staining with hematoxylin and eosin. Using an ocular grid, four cellular areas of dermis in each specimen were examined in a coded fashion at 1000× magnification and inflammatory cells were quantified. Differences between groups were assessed by Student's t test or analysis of variance, where appropriate.
(§3) For each mouse, 0.05 mg, slow release indomethacin pellets (Innovative Research, Toledo, Ohio) were implanted subcutaneously under light ether anesthesia 48 hours prior to an experiment. These pellets continuously release their contents over 14 days.

Implanted tumors = assay: Anti-tumor activity of rPF4 combined with indomethacin; format: in vivo, mice; conditions: s.c. tumors, indomethacin 50 μg slow release pellet; FIG. 10
Procedure: Four groups of mice were used in this experiment. In two groups of mice, slow release indomethacin pellets (50 μg) were implanted surgically under the skin of the left flank. The other two groups were not treated with indomethacin. Tumors were implanted subcutaneously in all four groups in the right flank.

[2] = test system: heparin inhibition of Factor Xa; assay: Factor Xa assay of heparin binding (prevention of heparin inhibition); format: biochemical
Excerpt: The lysine rich region of PF4 (residues 61-66) is also the domain associated with the binding of heparin by PF4. Heparin is known to play a role in modulating angiogenesis, which can also be affected by protamine, another well characterized heparin-binding protein. To assess the ability of PF4-based synthetic peptides to bind heparin, we assayed the activity of coagulation-cascade enzymes which are inhibited by heparin. The Factor Xa assay used here has previously been described in Denton et al. (1983) Biochem. J. 209:455-460.

[3] = test system: hind footpad (murine dermis); conditions: mouse, in vivo
Procedure: as §1, §2, §3

[4] = test system: heparin inhibition of thrombin; assay: Thrombin assay of heparin binding (prevention of heparin inhibition); format: biochemical; conditions: C-13: even at ten times an effective level of rPF4
angiogenesis on the CAM = assay: Chicken chorioallantoic membrane (CAM) assay; format: in vivo; conditions: for biological activity in the CAM assay: Table 4, compared with rPF4-211
Procedure: Chicken Chorioallantoic Membrane (CAM) Assay. Fertile eggs were incubated in a stationary position for 3 days at 37° C. and 70-80% relative humidity. During this time, the embryo rose to the upper surface of the egg contents. At the beginning of the 4th day, the eggs were cracked without inversion and carefully deposited into sterile plastic petri dishes such that the embryo remained on the upper surface. The shell-free eggs were incubated for an additional 72 hours at 37° C., under an atmosphere containing 2.5-3.5% CO2 after which the growing embryos developed a recognizable CAM. Discs, made by mixing test samples with 1% (w/v) methylcellulose, were dried and placed on the CAM between major veins and approximately 0.5 cm from the embryo. Following another 48 hour incubation at 37° C. (2.5-3.5% CO2), the samples were scored for their ability to inhibit angiogenesis. Inhibition appears as an avascular zone surrounding the implant and can often include elbows formed by veins avoiding the disc and a reduced number of capillaries in the region of the implant.

[5] = test system: Human umbilical vein endothelial cells (HUVEC); assay: Endothelial cell proliferation assay; format: cell-based; conditions: for biological activity in the HUVEC assay: Table 4, compared with rPF4-211; for inhibition of human umbilical vein endothelial cell proliferation: FIG. 6
Procedure: Endothelial Cell Proliferation Assay. Human umbilical vein endothelial cells (HUVEC) were cultured in Medium 199 (Gibco) containing 10% (v/v) fetal bovine serum (FBS), 150 mcg/ml endothelial cell growth supplement (ECGS) and 5 units/ml heparin at 37° C. and 4-5% CO2. Every 3-4 days, the cultures were harvested by trypsin treatment, diluted, replated, and grown to confluence. Prior to the start of an experiment, the cells were centrifuged and resuspended in heparin-free media and incubated with the test substance (PF4) for 3 days under standard culture conditions. At the end of the incubation period, the cells were removed by trypsin treatment and counted with a Particle Data Elzone 180 Cell Counter. Statistical significance between means was determined by a standard Student t-test for unpaired data. […]

[6] = test system: B16-F10 melanoma tumor line; assay: In vivo tumor growth assay, injection into the nascent tumor; set-up: species or system C57BL/6J female mice
Procedure: In vivo Tumor Growth Assay. Normal C57BL/6J female mice (6-8 weeks old) were inoculated subcutaneously with 5×10^5 log phase cells of a B16-F10 melanoma tumor line. This protocol led to progressive tumor growth resulting in large (300 mm^3) necrotic tumors after approximately 10 days, followed by death of untreated animals usually within three weeks of tumor inoculation.
To test the efficacy of rPF4 in preventing in vivo tumor growth and angiogenesis, tumor bearing animals were injected daily, directly into the nascent tumor, with either rPF4 or with buffer lacking rPF4, beginning one day after tumor inoculation. Tumor volume was measured at regular intervals with digital calipers by laboratory personnel uninformed of the specific treatment received by each subject animal.
The efficacy of rPF4-211 or rPF4-241 in preventing tumor growth and angiogenesis was tested. The inhibition of in vivo tumor growth was assayed after injection of either rPF4-211 (in 20 mM NaOAc, pH 4.0) or rPF4-241 (in 50 mM sodium phosphate, pH 6.5, 50 mM NaCl) directly into the nascent tumor, as described in the materials and methods section above.

[7] = test system: B16 murine melanoma cell line; assay: Systemic rPF4 against B16 melanoma lung metastases; format: in vivo; conditions: for # of Metastases (#/Mouse) / Lung Wt.: day 21, average of six mice
Procedure: Cells of a B16 murine melanoma cell line were injected intravenously into a tail vein of a mouse. Thirty seconds later, rPF4 (in saline or acetate buffer) was injected into the same mouse via a different tail vein. After 21 days, the tumor burden of the test and control animals was measured by counting, optically, lung metastases, and by weighing the lungs of the mice. Referring to Table 6, PF4 produced a dose-dependent effect, as measured by both parameters.

tumor cell growth = assay: Tumor cell growth in vitro; format: cell-based
Kaposi's sarcoma = assay: Cancers that contain malignant endothelial cells; conditions: such as Kaposi's sarcoma
[8] = test system: Human umbilical vein endothelial cells (HUVEC); assay: Endothelial cell proliferation assay; format: cell-based; conditions: rPF4 50 mcg/ml, 5 u/ml heparin
[9] = 0.375 mg rPF4 i.v. (19.7 mg/kg)
[10] = heparin-deficient medium, FIG. 3

Q: Which results are given for `COc1ccc2c(c1)c(CC(=O)O)c(C)n2C(=O)c1ccc(Cl)cc1` [indomethacin]?
A: effect on the inflammatory cell infiltrate induced by rPF4 [1]: partially abrogated; effect on the rPF4 pro-inflammatory response ([1]; FIG. 8): significantly blunts; growth of implanted tumors (Implanted tumors): grew rapidly after day 6

Q: What does the source list for “C-41: 41 amino acid C-terminal peptide of PF4 (IKAGPHCPTAQLIATLKNGRKICLDLQAPLYKKIIKKLLES; Platelet factor 4; UniProt P02776 61-101, looked up, fragment)”?
A: prevention of heparin inhibition of Factor Xa [2]: prevented heparin inhibition less effectively; Pro-inflammatory response Infiltrating [3]: ++; Pro-inflammatory response Swelling [3]: ++; composition of the inflammatory infiltrate [3]: composed of neutrophils and to a lesser degree mononuclear cells; inflammatory response [3]: pro-inflammatory; prevention of heparin inhibition of thrombin [4]: prevented heparin inhibition less effectively

Q: cytochrome c [reference compound] was tested. Which inflammatory response [3] did it give?
A: Its inflammatory response is “failed to elicit a significant inflammatory response”.

Q: How did the “inhibition of angiogenesis on the CAM” value (angiogenesis on the CAM; 6.5 nmol dosages) turn out when polylysine [reference compound] was run?
A: The value was “not to cause inhibition”.

Q: How did the “prevention of heparin inhibition of Factor Xa” value [2] turn out when protamine [reference compound] was run?
A: The value was “approximately equimolar concentrations”.

Q: And the “prevention of heparin inhibition of thrombin” value [4]?
A: Its value is “approximately equimolar concentrations”.

Q: Which results are given for “rPF4-231: rPF4 mutant that terminates at amino acid number 60: [PF4 AA 1-57] P L Y (EAEEDGDLQCLCVKTTSQVRPRHITSLEVIKAGPHCPTAQLIATLKNGRKICLDLQAPLY; Platelet factor 4 recombinant; UniProt P02776 32-91, looked up, fragment)”?
A: biological activity in the CAM assay (angiogenesis on the CAM): does not exhibit significant biological activity; biological activity in the HUVEC assay [5]: does not exhibit significant biological activity

Q: How did the “prevention of heparin inhibition of Factor Xa” value [2] turn out when “rPF4: recombinant platelet factor 4 with the wild type sequence, 70 residues; residues 58-70 P L Y K K I I K K L L E S” was run?
A: The value was “approximately equimolar concentrations”.

Q: What about the “time until inhibition of tumor growth was apparent” value ([6]; after the initial inoculation of rPF4) of the same molecule?
A: Its value is “apparent within three days”.

Q: What about the “tumor growth on continued treatment” value ([6]; daily injection into the tumor) of the same molecule?
A: The value was “completely suppressed tumor growth”.

Q: What about the tumor status ([6]; within seven days of tumor inoculation, daily injection into the tumor, FIG. 7) of the same molecule?
A: Its tumor status is “essentially tumor-free”.

Q: And the “# of Metastases (#/Mouse)” value [7, 9]?
A: The value was 112.2 #/Mouse.

Q: What about the “Lung Wt.” value [7, 9] of the same molecule?
A: Its value is 525 mg.

Q: And the “# of Metastases (#/Mouse)” value ([7]; 0.75 mg rPF4 i.v. (40.1 mg/kg))?
A: The value was 66.0 #/Mouse.

Q: What about the “Lung Wt.” value ([7]; 0.75 mg rPF4 i.v. (40.1 mg/kg)) of the same molecule?
A: Its value is 404 mg.

Q: What about the “# of Metastases (#/Mouse)” value ([7]; 1.5 mg rPF4 i.v. (84.2 mg/kg)) of the same molecule?
A: The value was 54.7 #/Mouse.

Q: What about the “Lung Wt.” value ([7]; 1.5 mg rPF4 i.v. (84.2 mg/kg)) of the same molecule?
A: The value was 357 mg.

Q: And the “toxicity or other adverse effects” value ([7]; systemic dosages in excess of 5000 μg per kg of body weight)?
A: The value was “no observable toxicity or other adverse effects”.

Q: What about the “direct inhibition of tumor cell growth in vitro” value (tumor cell growth) of the same molecule?
A: Its value is “did not directly inhibit tumor cell growth in vitro”.

Q: And the “Pro-inflammatory response Infiltrating” value [3]?
A: The value was “++”.

Q: And the “Pro-inflammatory response Swelling” value [3]?
A: Its value is “++”.

Q: And the “composition of the inflammatory infiltrate” value [3]?
A: The value was “composed of neutrophils and to a lesser degree mononuclear cells”.

Q: What about the “onset of acute inflammation” value [3] of the same molecule?
A: Its value is “within two hours”.

Q: And the “inhibition of angiogenesis on the CAM” value (angiogenesis on the CAM; discs containing several concentrations, FIG. 2)?
A: Its value is “inhibited angiogenesis”.

Q: What about the “inhibition of human umbilical vein endothelial cell proliferation” value [5] of the same molecule?
A: The value was “effective at inhibiting the proliferation”.

Q: And the “concentration at which inhibition of endothelial cell growth was complete” value [5, 10]?
A: The value was 3.2 µM.

Q: And the “lowest concentration with significant inhibition of endothelial cell growth” value [5, 10]?
A: Its value is 1.3 µM.

Q: And the “endothelial cell growth (cell count)” value ([5]; rPF4 50 mcg/ml, no heparin, three day incubation)?
A: Its value is 6.0 ± 0.6.

Q: And the “% Inhibition” value ([5]; rPF4 50 mcg/ml, no heparin, based on seeding of 8 × 10^4 cells/well)?
A: The value was 100% and ~ 100%.

Q: What about the “effect on cancers that contain malignant endothelial cells” value (Kaposi's sarcoma) of the same molecule?
A: The value was “inhibitory”.

Q: And the “prevention of heparin inhibition of thrombin” value [4]?
A: Its value is “approximately equimolar concentrations”.

Q: What about the “endothelial cell growth (cell count)” value ([8]; three day incubation) of the same molecule?
A: Its value is 14.0 ± 0.4.

Q: What about the “% Inhibition” value ([8]; based on seeding of 8 × 10^4 cells/well) of the same molecule?
A: The value was 45%.

Q: And the “growth of implanted tumors” value (Implanted tumors)?
A: Its value is “grew very little, if at all”.

B1: rPF4-241: PF4 mutant, four lysine residues near the C-terminus changed to two Gln-Glu couplets: P L Y Q E I I Q E L L E S (protein, UniProt P02776 32-101, looked up, variant K61Q K62E K65Q K66E)
Platelet factor 4: EAEEDGDLQCLCVKTTSQVRPRHITSLEVIKAGPHCPTAQLIATLKNGRKICLDLQAPLYQEIIQELLES
modifications: Platelet factor 4 recombinant
notes: PF4 mutant, four lysine residues near the C-terminus changed to two Gln-Glu couplets: P L Y Q E I I Q E L L E S
Q: With B1 as the molecule, how does the heparin-binding activity ([2]; Factor Xa inhibition assay) read?
A: The heparin-binding activity was “lacked heparin-binding activity”.

Q: And the “tumor growth on continued treatment” value ([6]; daily injection into the tumor)?
A: The value was “same effect was observed”.

Q: What about the “Pro-inflammatory response Infiltrating” value [3] of the same molecule?
A: Its value is “+”.

Q: And the “Pro-inflammatory response Swelling” value [3]?
A: Its value is “+”.

Q: And the “inhibition of angiogenesis in the CAM system” value (angiogenesis on the CAM; 1.25 nmol/disc, lowest concentration tested, FIG. 5)?
A: Its value is “extensively inhibited angiogenesis”.

Q: What about the “reversal of the inhibitory effect by heparin” value (angiogenesis on the CAM; CAM) of the same molecule?
A: The value was “not reversed by heparin”.

Q: And the “biological activity in the CAM assay” value (angiogenesis on the CAM)?
A: Its value is “enhanced activity”.

Q: What about the “inhibition of angiogenesis compared with native rPF4” value (angiogenesis on the CAM; equal concentrations, larger avascular zones) of the same molecule?
A: Its value is “even more effective”.

Q: What about the “inhibition of human umbilical vein endothelial cell proliferation” value [5] of the same molecule?
A: The value was “effective at inhibiting the proliferation”.

Q: And the “biological activity in the HUVEC assay” value [5]?
A: The value was “enhanced activity”.

B2: rPF4-302: rPF4 mutant, C-terminal sequence P L Y Q Q I I Q Q L L E S (protein, UniProt P02776 32-101, looked up, variant K61Q K62Q K65Q K66Q)
Platelet factor 4: B1 Platelet factor 4 with E62Q, E66Q
modifications: Platelet factor 4 recombinant
Q: With B2 as the molecule, how does the “biological activity in the CAM assay” value (angiogenesis on the CAM) read?
A: Its value is “does not exhibit significant activity”.

Q: What about the “biological activity in the HUVEC assay” value [5] of the same molecule?
A: Its value is “does not exhibit significant activity”.

B3: rPF4-307: rPF4 mutant, C-terminal sequence P L Y Q I E I Q L E L E S (protein, UniProt P02776 32-101, looked up, variant K61Q K62I I63E I64I K65Q K66L L67E L68L)
Platelet factor 4: B1 Platelet factor 4 with E62I, I63E, E66L, L67E
modifications: Platelet factor 4 recombinant
Q: For B3, which “biological activity in the CAM assay” value (angiogenesis on the CAM) is on record?
A: Its value is “enhanced activity”.

Q: And the “biological activity in the HUVEC assay” value [5]?
A: The value was “enhanced activity”.
